The results in this text go back to patent EP4563571A1, “PRMT5 INHIBITORS” (Beijing Earthwise Technology Co., Ltd., priority 2022, dated 2024).

One may read the GI50 as the concentration that inhibits growth by half.

The test system of the first assay is HCT116^MTAP Deletion cells. Put plainly: Anti-proliferation assay on cells (Cell-Titer Glo, 10 days). The conditions noted are these: 240 h, HCT116^MTAP Deletion cells, 10 days incubation, CTG readout; read-out: HCT116^MTAP Deletion GI50. The assay is classed as cell-based. On the procedure:
HCT116^MTAP Deletion cells were from Pharmaron (China); HCT116 cells were from ATCC; McCoy's 5A medium was purchased from Invitrogen (USA); penicillin-streptomycin and fetal bovine serum were purchased from Gibco (USA); a 384-well plate was purchased from PerkinElmer (USA); and Cell-Titer Glo reagent was purchased from Promega (USA).
Compound dissolution: All the compounds were dissolved in dimethyl sulfoxide (DMSO) and then stored. The compounds were stored at room temperature in a dry condition for 3 months for short term storage or at -20 °C for long term storage.
Cell culture and passaging
The cells were cultured strictly in accordance with ATCC requirements. The cell culture medium (McCoy's 5A medium + 10% fetal bovine serum + 1% penicillin + streptomycin) was transferred to a 15 mL centrifuge tube and centrifuged at 1000 rpm for 5 min. The supernatant was removed. The cells were resuspended with complete culture medium, inoculated into a culture dish at the required density, and cultured in an incubator at 37 °C, 95% humid air, and 5% carbon dioxide. The culture medium was replenished or the cells were passaged every 2-3 days depending on the cell growth condition.
Cell proliferation activity assay
When the confluency of cells in the culture dish reached about 90%, the cells were washed twice with PBS, and then treated with trypsin to become single cells. The cells were counted, and 40µl of the cells was inoculated into each well of a 384-well plate (50 cells/well). The plate was equilibrated at 37 °C and 5% carbon dioxide for 10 to 15 minutes. The compounds were injected into the 384-well plate using Echo550, and positive control and negative control (0.1% DMSO) were set up. Each compound was subjected to a 3-fold dilution, resulting in 10 concentration gradients, in duplicate, and the content of DMSO was 0.1%. The 384-well plate was incubated in a cell culture incubator for 10 days.
Then, 40 µl of cell proliferation assay reagent (CTG) was added to the 384-well plate, and the plate was shaken to mix well. Then, the 384-well plate was incubated at 37 °C and 5% carbon dioxide in the dark for 30 minutes. The data were read using the Envision multifunctional microplate reader. […] According to the different drug concentrations and their corresponding inhibition rates, the GI50 curve was drawn using GraphPad 8.0 software. The data were analyzed, and the final IC50 value was obtained.
On to `CN(C(=O)C(=O)Nc1cnc(N)c2c1cnn2C)C1COCc2cc(N3CCOCC3)ccc21` (centres unmarked) [Example 175], for which the GI50 was in the range of 0.01 to 0.1 µM. Same read-out and setting: then `Cc1c(-c2ccc3c(c2)COCC3N(C)C(=O)C(=O)Nc2cnc(N)c3c2cnn3C)cnn1C` (centres unmarked) [Example 150], with less than 0.01 µM; and `CCC(C)N(C(=O)C(=O)Nc1cnc(N)c(C)c1)C(C)c1ccc(C(F)(F)F)cn1` (centres unmarked) [Example 74], with 1 to 10 µM. Regarding `COc1ccc(-c2ccc3c(c2)COCC3N(C)C(=O)C(=O)Nc2cnc(N)c3c2cnn3C)cn1` (centres unmarked) [Example 202], the GI50 is less than 0.01 µM. Same read-out and setting: then `CN(C(=O)C(=O)Nc1cnc(N)c2c1cnn2C)C1COc2cc(C(F)(F)F)cc(F)c21` (centres unmarked) [Example 176], with 0.01 to 0.1 µM; and `CN(C(=O)C(=O)Nc1cnc(N)c2c1cnn2C)C1COc2cc(C3CC3)ccc21` (centres unmarked) [Example 193], with 0.01 to 0.1 µM; and `COc1ncc(NC(=O)C(=O)N(C)C2COCc3cc(C(F)(F)F)ccc32)cc1C(N)=O` (centres unmarked) [Example 143], with 0.1 to 1 µM.

With `CC(C)CN(C(=O)C(=O)Nc1cnc(N)c2c1cnn2C)C1COCc2cc(C(F)(F)F)ccc21` (centres unmarked) [Example 103], the GI50 was less than 0.01 µM. The same measure, in the same setting: then `Cc1cc(NC(=O)C(=O)N(CC(C)C)c2cccc(C(F)(F)F)c2)cnc1N` [Example 107], with more than 10 µM. Same read-out and setting: then `Cc1cc(NC(=O)C(=O)N(Cc2ccc(C(F)(F)F)cn2)CC23CC(C2)C3)cnc1N` [Example 53], with 0.1 to 1 µM; and `CN(C(=O)C(=O)Nc1cnc(N)c2c1cnn2C)C1COCc2cc(C(F)(F)F)cnc21` (centres unmarked) [Example 114], with 0.1 to 1 µM. On the same count and under the same terms, to `Cn1ncc2c(NC(=O)C(=O)NC3COCc4cc(C(F)(F)F)ccc43)cnc(N)c21` (centres unmarked) [Example 119] belongs 1 to 10 µM; to `CN(C(=O)C(=O)Nc1cnc(N)c2c1cnn2C)C1COc2cc(N3CCOCC3)ccc21` (centres unmarked) [Example 205], 0.01 to 0.1 µM; to `Cc1cc(NC(=O)C(=O)N(Cc2ccc(C(F)(F)F)cn2)CC2CC(F)(F)C2)cnc1N` [Example 70], 0.1 to 1 µM. Regarding `CN(C(=O)C(=O)Nc1cnc(N)c2c1cnn2C)C1COCc2cc(OC(F)(F)F)ccc21` (centres unmarked) [Example 115], the GI50 is less than 0.01 µM. Still for that read-out and setting: then `CN(C(=O)C(=O)Nc1cnc(N)c2c1cnn2C)C1COCc2cc(S(C)(=O)=O)ccc21` (centres unmarked) [Example 227], with 0.01 to 0.1 µM. On the same count and under the same terms, then `CN(C(=O)C(=O)Nc1cnc(N)c2c1cnn2C)C1COCc2ccc(C(F)(F)F)cc21` (centres unmarked) [Example 134], with 0.01 to 0.1 µM; and `Cc1ncc(-c2ccc3c(c2)COCC3N(C)C(=O)C(=O)Nc2cnc(N)c3c2cnn3C)o1` (centres unmarked) [Example 207], with less than 0.01 µM.

For the compound `CN(C(=O)C(=O)Nc1cnc(N)c2c1cnn2C)C1COc2cc(-c3cnn(C)c3)ccc21` (centres unmarked) [Example 140-P1], the GI50 was less than 0.01 µM. In the case of `CN(C(=O)C(=O)Nc1cnc(N)c2c1cnn2C)C1COc2cc(-c3ccc(C4CC4)nc3)ccc21` (centres unmarked) [Example 239], the GI50 is less than 0.01 µM. The same measure, in the same setting: to `Cc1nc(-c2ccc3c(c2)OCC3N(C)C(=O)C(=O)Nc2cnc(N)c3c2cnn3C)no1` (centres unmarked) [Example 229] belongs 0.01 to 0.1 µM; to `CN(C(=O)C(=O)Nc1cnc(N)c2c1cnn2C)C1COc2cc(C(F)(F)C(F)(F)F)ccc21` (centres unmarked) [Example 210], less than 0.01 µM.

Turning to `Cn1ncc2c(NC(=O)C(=O)N(CC3CC3)C3COCc4cc(C(F)(F)F)ccc43)cnc(N)c21` (centres unmarked) [Example 102], the concentration for 50% growth inhibition (GI50) was less than 0.01 µM. Same read-out and setting: then `Cc1cc(NC(=O)C(=O)N(Cc2ccc(C(F)(F)F)cn2)C(C)C(C)C)cnc1N` (centres unmarked) [Example 86], with 0.01 to 0.1 µM; and `CC#Cc1ccc2c(c1)OCC2N(C)C(=O)C(=O)Nc1cnc(N)c2c1cnn2C` (centres unmarked) [Example 240], with 0.01 to 0.1 µM. Still for that read-out and setting: to `CCC(C)N(Cc1ccc(C(F)(F)F)cc1)C(=O)C(=O)Nc1cnc(N)c(C)c1` (centres unmarked) [Example 59] belongs 0.01 to 0.1 µM; to `CN(C(=O)C(=O)Nc1cnc(N)c2c1cnn2C)C1CCc2cc(C(F)(F)F)ccc21` (centres unmarked) [Example 136], 0.01 to 0.1 µM.

Take `CC(C)c1ccc2c(c1)OCC2N(C)C(=O)C(=O)Nc1cnc(N)c2c1cnn2C` (centres unmarked) [Example 230]: the GI50 is less than 0.01 µM. Same read-out and setting: to `CN(C(=O)C(=O)Nc1cnc(N)c2c1cnn2C)C1COc2cc(OC(F)(F)F)ccc21` (centres unmarked) [Example 196] belongs 0.01 to 0.1 µM; to `CN(C(=O)C(=O)Nc1cnc(N)c2c1cnn2C)C1CCCN(c2ccccc2)C1` (centres unmarked) [Example 133], 1 to 10 µM; to `CN(C(=O)C(=O)Nc1cnc(N)c2c1cnn2C)C1COCc2nc(-c3ccnn3C3CC3)ccc21` (centres unmarked) [Example 220], less than 0.01 µM. The same measure, in the same setting: to `CCC(C)N(Cc1ccc(C(F)(F)F)nn1)C(=O)C(=O)Nc1cnc(N)c(C)c1` (centres unmarked) [Example 65] belongs 0.1 to 1 µM; to `CCC(C)N(Cc1ccc(C2CC2)cn1)C(=O)C(=O)Nc1cnc(N)c(C)c1` (centres unmarked) [Example 71], 0.01 to 0.1 µM. On the same count and under the same terms, to `CN(C(=O)C(=O)Nc1cnc(N)c2c1cnn2C)C1COC(C)(C)c2cc(C(F)(F)F)ccc21` (centres unmarked) [Example 147] belongs 0.01 to 0.1 µM; to `CCC(C)N(Cc1ccc(Cl)cn1)C(=O)C(=O)Nc1cnc(N)c(C)c1` (centres unmarked) [Example 61], 0.1 to 1 µM. `CN(C(=O)C(=O)Nc1cnc(N)c2c1cnn2C)C1COCc2cc(C3CCOCC3)ccc21` (centres unmarked) [Example 144]: the GI50 is 0.01 to 0.1 µM. The same measure, in the same setting: to `CCOc1ccc(CN(C(=O)C(=O)Nc2cnc(N)c(C)c2)C(C)CC)nc1` (centres unmarked) [Example 62] belongs 0.01 to 0.1 µM. On the same count and under the same terms, then `CN(C(=O)C(=O)Nc1cnc(N)c2c1cnn2C)C1COCc2cc(C34CCOCC3C4)ccc21` (centres unmarked) [Example 197], with less than 0.01 µM; and `CCC(C)N(Cc1ccc(C#N)c(Cl)n1)C(=O)C(=O)Nc1cnc(N)c(C)c1` (centres unmarked) [Example 77], with 0.01 to 0.1 µM. Still for that read-out and setting: to `CCCN(C(=O)C(=O)Nc1cnc(N)c2c1cnn2C)C1COc2cc(C(F)(F)F)ccc21` (centres unmarked) [Example 117] belongs 0.01 to 0.1 µM; to `CCC(C)N(Cc1ccc(OC(C)C)cn1)C(=O)C(=O)Nc1cnc(N)c(C)c1` (centres unmarked) [Example 80], 0.01 to 0.1 µM; to `CCC(C)N(C(=O)C(=O)Nc1cnc(N)c2c1cnn2C)C1COCc2cc(C(F)(F)F)ccc21` (centres unmarked) [Example 131], 0.01 to 0.1 µM.

The same assay, now with this note: HCT116^MTAP Deletion cells, 10 days incubation, CTG readout; read-out: HCT116^MTAP Deletion GI50.
On to `CCC(C)N(Cc1ccc(C(F)(F)F)cn1)C(=O)C(=O)Nc1cnc(OC)c(C(N)=O)c1` (single isomer, unassigned) [Example 5-P2], for which the GI50 is 0.01 to 0.1 µM.

Consider `Cc1cc(NC(=O)C(=O)N(Cc2ccc(C(F)(F)F)cn2)C2CCCC2)cnc1N` [Example 11], for which the GI50 is 0.1 to 1 µM. Still for that read-out and setting: to `C[C@H](c1ncccn1)N(Cc1ccc(C(F)(F)F)cn1)C(=O)C(=O)Nc1cnc(N)c2c1CCCC2` [Example 31] belongs 0.1 to 1 µM. As for `CCC(C)N(Cc1ccc(C(F)(F)F)cn1)C(=O)C(=O)Nc1cnc(N)c(C)c1` (single isomer, unassigned) [Example 45-P1], the GI50 lay in the range of 0.01 to 0.1 µM. The same measure, in the same setting: to `CN(C(=O)C(=O)Nc1cnc(N)c2c1cnn2C)C1COCc2cc(-c3cnn(C)c3)ccc21` (centres unmarked) [Example 124-P2] belongs 0.01 to 0.1 µM; to `CN(C(=O)C(=O)Nc1cnc(N)c2c1cnn2C)C1COc2cc(-c3cnn(C)c3)ccc21` (centres unmarked) [Example 140-P2], 0.01 to 0.1 µM. The same measure, in the same setting: to `Cc1cc(NC(=O)C(=O)N(Cc2ccc(C(F)(F)F)cn2)CC2CCC2)cnc1N` [Example 16] belongs 0.01 to 0.1 µM; to `CN(C(=O)C(=O)Nc1cnc(N)c2c1cnn2C)C1COCc2cc(C3=CCOCC3)ccc21` (centres unmarked) [Example 132-P2], 0.01 to 0.1 µM.

On to `CCC(C)N(Cc1ccc(C(F)(F)F)cn1)C(=O)C(=O)Nc1cnc(N)c2c1cnn2C` (racemic) [Example 46-P1], for which the GI50 lay in the range of 0.01 to 0.1 µM. As to `Cc1cc(NC(=O)C(=O)N(Cc2ccc(C(F)(F)F)cn2)CC2CC2)cnc1N` [Example 15], the GI50 is 0.01 to 0.1 µM. Still for that read-out and setting: then `C[C@H](C1CC1)N(Cc1ccc(C(F)(F)F)cn1)C(=O)C(=O)Nc1cnc(N)c2c1COC2` [Example 39], with 0.1 to 1 µM. Still for that read-out and setting: then `CC1OCC(N(C)C(=O)C(=O)Nc2cnc(N)c3c2cnn3C)c2ccc(C(F)(F)F)cc21` (centres unmarked) [compound 187], with less than 0.01 µM.

On to `CN(C(=O)C(=O)Nc1cnc(N)c2c1cnn2C)C1COc2cc(-c3cnn(C(F)(F)F)c3)ccc21` (centres unmarked) [Example 213], for which the GI50 is less than 0.01 µM.

As for `Cc1ncc(-c2ccc3c(c2)COCC3N(C)C(=O)C(=O)Nc2cnc(N)c3c2cnn3C)s1` (racemic) [compound 181], the GI50 is less than 0.01 µM. On to `CN(C(=O)C(=O)Nc1cnc(N)c2c1cnn2C)C1COc2cc(F)c(F)cc21` (racemic) [compound 172], for which the GI50 was in the range of 0.01 to 0.1 µM. As to `CN(C(=O)C(=O)Nc1cnc(N)c2c1cnn2C)C1COc2cc(-c3cnc(C4CC4)s3)ccc21` (centres unmarked) [Example 236], the GI50 is less than 0.01 µM. Still for that read-out and setting: then `CCC(C)N(Cc1ccc(C2=CCN(C(=O)OC)CC2)cn1)C(=O)C(=O)Nc1cnc(N)c(C)c1` (centres unmarked) [Example 125-P2], with less than 0.01 µM.
